Holding throughout (type): biochemical
The target in assay [1] is T1, recombinant human AChE (Homo sapiens, UniProt P22303).
T1 construct: purchased Sigma C1682
The experiment in a line: Modified Ellman's colorimetric assay for AChE and kinetic studies. Conditions: for inhibition at 200 µM: 200 µM compound, compared to control, mean of three experiments in triplicate, read-out: AChE % IR (inhibition rate); for Ki / IC50: mean of two experiments; for IC50: substrate ATC 0.5 mM. The text has this: (§1) A modified version of Ellman’s colorimetric assay[16],[17] was adapted to a high throughput assay for the enzymatic activity of BuChE and AChE. The reagent, butyrylthiocholine iodide (BTC), acetylthiocholine iodide (ATC), 5,5′-dithiobis (2-nitrobenzoic acid) (DTNB) were purchased from Sigma-Aldrich (St. Louis, MO, USA). The modified assay details are as previously described[34],[35]. The main modification concerned with the high throughput adaptation of the assay for use in 384-well plates. Briefly, 25 μL/well of a 1:450 diluted solution of a pooled human plasma and 1:768 diluted (3.5 ng/ml final concentration) purified recombinant human AChE protein (Sigma, Cat no. C1682) was used for measurement of BuChE and AChE activity, respectively. In the initial in vitro screening step, the wells were pre-incubated with 25 μL/wells of different Asinex compounds for 10–30 minutes at room temperature. The concentration of the compounds working solution was 3X to give a final concentration of 200 μM in a final volume of 75 μL in each well. The stock concentration of the compounds were prepared in 100% DMSO. The stock concentration was chosen usually at 10 mM, allowing the final DMSO concentration in the wells to be less than 4%. Finally, 25 μL of a cocktail mix prepared in Na/K phosphate buffer, containing DTNB (final concentration 0.4 mM) and BTC, (final concentration 1 mM) or ATC (final concentration 0.5 mM) was added to each well and the changes in absorbance was monitored at 412 nm wavelength for 15–20 minutes with one-minute interval, using a microplate spectrophotometer reader (Infinite M1000, Tecan). The rate of the enzyme activity was determined from the linear part of the kinetic reaction curves as ∆OD/time.
(§2) For kinetic studies, a similar protocol as inhibition assay was followed; a dilution series of five different concentrations ranging from 10^−6 to 10^−9 M were prepared for each selected Asinex compounds. For ChAT, the A-CoA was kept constant at 10 μM (final) but the concentration of choline chloride varied between 320–10 μM. For BuChE, BTC was used as the substrate in the concentrations ranging from 0.0625 to 2 mM. For AChE, ATC was used as the substrate in the concentrations ranging from 0.0312 to 1 mM. Each compound concentration was measured in duplicates. The rate of enzyme activity (as ∆OD/hr kinetic data) was calculated and processed using the GraphPad Prism 7 analysis software. The inhibitory constant (Ki) values were determined from the dose-response curve and the half-maximal inhibitory concentration (IC50) values were calculated by plotting the percentage enzyme activity vs. the log of the Asinex compound concentrations and fitting the data using the nonlinear regression Enzyme Kinetics-Inhibition function.

Assay [2] concerns the target T2, plasma BuChE (Homo sapiens, UniProt P06276).
T2 construct: 1:450 diluted solution of a pooled human plasma; from tissue; host or cells: pooled human plasma
The experiment in a line: Modified Ellman's colorimetric assay for BuChE (pooled human plasma) and kinetic studies. Conditions: 200 µM compound; compared to control; mean of three experiments in triplicate; read-out: BuChE % IR (inhibition rate).
Source text: as §1, §2
A general note: Ellman's reagent forms a yellow product with free thiols.

Assay [3] concerns the target T3, human rChAT (Homo sapiens, UniProt P28329).
T3 construct: made in house; host or cells: E. coli BL21 Rosetta2
T3 sequence (P28329 1-630 isoform P28329-3): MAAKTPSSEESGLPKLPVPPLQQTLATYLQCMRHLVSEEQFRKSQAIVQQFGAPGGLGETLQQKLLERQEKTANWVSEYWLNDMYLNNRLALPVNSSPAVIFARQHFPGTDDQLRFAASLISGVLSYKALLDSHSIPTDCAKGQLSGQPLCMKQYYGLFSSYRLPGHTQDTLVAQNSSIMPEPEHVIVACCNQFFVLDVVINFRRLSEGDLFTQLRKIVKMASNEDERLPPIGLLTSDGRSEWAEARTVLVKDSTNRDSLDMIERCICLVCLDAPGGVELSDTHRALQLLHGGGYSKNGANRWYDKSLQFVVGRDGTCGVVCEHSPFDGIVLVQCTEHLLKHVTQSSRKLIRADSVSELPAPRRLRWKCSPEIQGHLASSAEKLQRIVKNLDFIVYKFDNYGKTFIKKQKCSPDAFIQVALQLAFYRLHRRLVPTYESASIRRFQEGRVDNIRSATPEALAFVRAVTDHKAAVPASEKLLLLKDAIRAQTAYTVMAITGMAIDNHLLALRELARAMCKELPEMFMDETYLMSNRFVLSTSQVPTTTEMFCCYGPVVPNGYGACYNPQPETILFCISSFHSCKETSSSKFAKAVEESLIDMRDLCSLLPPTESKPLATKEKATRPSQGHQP
The experiment in a line: In vitro ChAT activity inhibition fluorometric assay and kinetic studies. To be noted: 100 µM compound; compared to control; mean of three experiments in triplicate; read-out: ChAT % IR (inhibition rate). The protocol:
ChAT activity was measured using our newly developed fluorometric assay, using human recombinant ChAT (rChAT) protein. The reagents, choline chloride, acetyl coenzyme-A (ACoA, A2181) and 7-Diethylamino-3-(4-maleimidophenyl)-4-methylcoumarin (CPM) were purchased from Sigma-Aldrich (St. Louis, MO, USA).
The ChAT assay could be run in either 96-well or 384-well plates. For 96-well plates, 50 μL/well of 0.212 µg/ml (final concentration) of the recombinant ChAT was incubated with 100 μM different Asinex compounds (50 μL/well) for 10–30 minutes at room temperature in dilution buffer (10 mM Tris-HCl, pH 7.4, 150 mM NaCl, 1.0 mM EDTA, 0.05% (v/v) Triton X-100). Then, 50 µL of a cocktail-A [dilution buffer containing choline chloride (final concentration 150 µM), ACoA (final concentration 13.3 µM) and CPM (final concentration 15 µM)] was added to each well. Immediately after adding the cocktail-A, the changes in fluorescence was monitored kinetically at 479 nm after exciting at 390 nm at 1–2 minute intervals for 15–20 minutes using a microplate spectrophotometer reader (Infinite M1000, Tecan).
Each Asinex compounds were run in triplicates. On each 96-wells plate, several enzyme wells without inhibitor were also included during measurements as control and for estimating the inhibition level. Negative controls were wells without enzyme. The percentage inhibition for each Asinex compound was calculated based on the enzyme control value as a reference (100% activity). The compounds showing over 50% inhibition of enzyme activity were selected for further kinetic studies.
as §2
The Michaelis-Menten constant (Km) and maximal velocity (Vmax) values were calculated from substrate-velocity curve after fitting the data with non-linear regression Michaelis-Menten kinetic function. The Km and Vmax values were further used to plot the Lineweaver-Burk plots; the plots were fitted using linear regression function.

As usually defined, the inhibition is the drop in the measured response relative to a control, in per cent. As usually defined, the Ki is a dissociation constant, usually derived from enzyme kinetics or from competition with a known ligand. The term IC50 denotes the concentration at which inhibition is half-maximal.

T2 sequence (P06276 29-602): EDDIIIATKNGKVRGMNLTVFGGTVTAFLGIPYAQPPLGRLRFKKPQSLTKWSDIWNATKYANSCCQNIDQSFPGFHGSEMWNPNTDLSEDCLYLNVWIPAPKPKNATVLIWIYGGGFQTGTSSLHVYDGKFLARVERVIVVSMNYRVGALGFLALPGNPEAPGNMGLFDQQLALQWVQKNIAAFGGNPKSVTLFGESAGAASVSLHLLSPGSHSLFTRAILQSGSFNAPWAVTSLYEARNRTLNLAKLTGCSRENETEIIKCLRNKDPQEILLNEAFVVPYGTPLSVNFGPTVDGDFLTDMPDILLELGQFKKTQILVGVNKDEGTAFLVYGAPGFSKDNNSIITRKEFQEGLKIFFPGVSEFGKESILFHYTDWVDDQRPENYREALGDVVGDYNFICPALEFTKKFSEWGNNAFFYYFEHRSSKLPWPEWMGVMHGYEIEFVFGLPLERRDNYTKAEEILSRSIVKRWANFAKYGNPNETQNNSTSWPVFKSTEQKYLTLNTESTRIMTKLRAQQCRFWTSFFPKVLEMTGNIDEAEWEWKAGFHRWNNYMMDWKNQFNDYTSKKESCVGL
T1 sequence (P22303 32-614): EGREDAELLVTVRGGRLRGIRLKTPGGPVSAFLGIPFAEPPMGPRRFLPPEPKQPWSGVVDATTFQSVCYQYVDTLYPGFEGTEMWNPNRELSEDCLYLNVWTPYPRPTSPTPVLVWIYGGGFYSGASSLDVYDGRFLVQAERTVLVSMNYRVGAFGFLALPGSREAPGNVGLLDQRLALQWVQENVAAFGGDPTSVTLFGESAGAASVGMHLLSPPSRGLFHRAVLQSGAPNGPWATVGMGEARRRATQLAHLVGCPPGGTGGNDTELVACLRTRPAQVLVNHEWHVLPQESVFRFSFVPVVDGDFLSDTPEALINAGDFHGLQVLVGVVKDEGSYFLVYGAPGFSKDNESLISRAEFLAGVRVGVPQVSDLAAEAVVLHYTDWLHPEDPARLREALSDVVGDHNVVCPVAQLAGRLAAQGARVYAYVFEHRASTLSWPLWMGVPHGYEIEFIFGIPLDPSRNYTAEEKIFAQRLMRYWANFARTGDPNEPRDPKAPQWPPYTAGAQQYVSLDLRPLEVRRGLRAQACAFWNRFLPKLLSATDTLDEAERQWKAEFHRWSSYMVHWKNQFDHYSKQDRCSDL

For `COc1cc(OC)cc(C(=O)N2CCN(C(=O)C(c3ccccc3)c3ccccc3)CC2)c1` [Compound A1], the figures for the inhibition at 200 µM in assay [1] and in assay [2] were 0% and 4.8%, respectively. Moreover, in assay [3], the inhibition at 100 µM was 0%.
Regarding `CCOC(=O)c1sc2ncn(CCc3ccccc3)c(=O)c2c1C` [Compound A3], the inhibition at 200 µM in assay [1] worked out at 0%; in assay [2] it was 15.1%. Further, the inhibition at 100 µM in assay [3] came out at 6.9%.
In the case of `Cc1c(C)n(C(=O)CSc2nnc(-c3ccccc3)o2)c2ccccc12` [Compound A4], the figures for the inhibition at 200 µM in assay [1] and in assay [2] were 0% and 14.4%, respectively. In addition, in assay [3], the inhibition at 100 µM turned out to be 26.7%.
In the case of `CC1(C)CC(=O)C(=CNCC2CCN(C(=O)Cc3ccc(Cl)cc3)CC2)C(=O)C1` [Compound A5], the inhibition at 200 µM in assay [1] was found to be 7%; in assay [2], 9.2%. For the same compound, the inhibition at 100 µM in assay [3] turned out to be 2.1%.
Taken in the same sequence, the figures for `Cc1cc2nc(C3CCN(CC(=O)Nc4ccccc4)CC3)[nH]c2cc1C` [Compound A6] were 11.9%, 20.2% and 0%.
In the case of `Clc1cccc(N2CCN(Cc3nnn(Cc4ccco4)n3)CC2)c1` [Compound A7], the inhibition at 200 µM in assay [1] turned out to be 15.8%; in assay [2], 29.9%. Besides, the inhibition at 100 µM in assay [3] is 7.2%.
With `COc1ccc(Cl)cc1NC(=O)CCN1CCN(c2ccccc2C)CC1` [Compound B2], the inhibition at 200 µM amounted to 0% in assay [1] and 18.5% in assay [2]. Also, in assay [3], the inhibition at 100 µM is 0%.
For `COc1ccc(CC(=O)Nc2cc3oc4ccccc4c3cc2OC)cc1` [Compound B3], the inhibition at 200 µM in assay [1] is 0%; in assay [2], 16.6%. In assay [3], the inhibition at 100 µM turned out to be 0%.
With `COc1cc(CN2CCC(C(=O)N3CCC(C)CC3)CC2)ccc1OCc1ccccc1` [Compound B5], the inhibition at 200 µM worked out at 26.1% in assay [1] and 39.5% in assay [2]. Moreover, the inhibition at 100 µM in assay [3] was 0%.
In the case of `COc1ccccc1N1CCN(c2nc(-c3ccc(C)cc3)cc(=O)[nH]2)CC1` [Compound B6], the values for the inhibition at 200 µM in assay [1] and in assay [2] were 2.6% and 11%, respectively. Also, the inhibition at 100 µM in assay [3] stood at 7.6%.
For `O=C(Nc1ccc(CN2CCOCC2)cc1)c1ccc2c(c1)[nH]c(=O)n2CCc1ccccc1` [Compound B7], in assay [1], the Ki came out at 65.4 µM and the IC50 is 40.1 µM. In addition, the inhibition at 200 µM in assay [2] was found to be 14.9%. Moreover, the inhibition at 100 µM in assay [3] was 13.3%.
For the compound `CN(C(=O)COc1ccc(-c2nn(C)c(=O)c3ccccc23)cc1)C1CCCCC1` [Compound C1], in assay [1], the Ki turned out to be 42.3 µM and the IC50 came out at 71.9 µM. For the same compound, the inhibition at 200 µM in assay [2] is 9.8%. The inhibition at 100 µM in assay [3] amounted to 0%.
With `CCn1c(CNC(=O)COc2ccc(Cl)cc2)cc2ccccc21` [Compound C3], the inhibition at 200 µM in assay [1] was 22%; in assay [2] it was 20.1%. Also, the inhibition at 100 µM in assay [3] stood at 0%.
Regarding `COc1ccc(-c2nnc(-c3cc4c(ccc5ccccc54)oc3=O)o2)cc1` [Compound C6], the inhibition at 200 µM in assay [1] amounted to 33.1%; in assay [2] it was 34.7%.
As for `COCCNc1c(-c2cc3cc(C)ccc3[nH]c2=O)nc2ccc(Cl)cn12` [Compound C7], the values for the inhibition at 200 µM in assay [1] and in assay [2] were 15.7% and 29.4%, respectively. The inhibition at 100 µM in assay [3] turned out to be 0%.
As for `Cc1cccc(N2CCN(CC(=O)Nc3ccc(C)c(F)c3)CC2)c1` [Compound D1], the figures for the inhibition at 200 µM in assay [1] and in assay [2] were 0% and 20%, respectively. In assay [3], the inhibition at 100 µM came to 0%.
Regarding `CC(=O)c1ccc(NC(=O)CN2CCN(c3cccc(C)c3C)CC2)cc1` [Compound D2], the inhibition at 200 µM was 18.1% in assay [1] and 7% in assay [2]. Besides, in assay [3], the inhibition at 100 µM worked out at 0%.
Regarding `COc1ccc(NC(=O)Cn2nc(C(F)(F)F)c3c2CCCC3)c(OC)c1` [Compound D5], the inhibition at 200 µM worked out at 4.2% in assay [1] and 7.8% in assay [2]. In addition, the inhibition at 100 µM in assay [3] came to 0%.
In the case of `COc1ccc(-c2cc(C(F)(F)F)nc(SCCC(=O)N3CCN(C)CC3)n2)cc1` [Compound D6], the inhibition at 200 µM in assay [1] was 0%; in assay [2], 9.3%. For the same compound, the inhibition at 100 µM in assay [3] was 4.8%.
As for `CCOc1ccc2[nH]c(=O)c(CN(Cc3ccccc3)C(=O)N3CCCC3)cc2c1` [Compound D7], the inhibition at 200 µM was determined as 27.7% in assay [1] and 22.4% in assay [2]. In addition, the inhibition at 100 µM in assay [3] is 0%.
Regarding `CCc1ccccc1NC(=O)CSc1nnc(-c2cccnc2)n1CC` [Compound E2], the inhibition at 200 µM was found to be 2.7% in assay [1] and 12% in assay [2]. In assay [3], the inhibition at 100 µM came to 4.1%.
Take `O=C(CSc1nnc(-c2cccc(F)c2)o1)N1CCC(Cc2ccccc2)CC1` [Compound E3]: the inhibition at 200 µM in assay [1] is 10.2%; in assay [2], 23%. Besides, in assay [3], the inhibition at 100 µM was found to be 10.3%.
Regarding `COc1cccc(OCC(=O)Nc2cc3oc4ccccc4c3cc2OC)c1` [Compound E4], the inhibition at 200 µM was found to be 1.5% in assay [1] and 11.7% in assay [2]. In assay [3], the inhibition at 100 µM worked out at 4.8%.
Turning to `C=C(C)CN1N=C(C)Cn2c1nc1c2c(=O)n(C/C=C/c2ccccc2)c(=O)n1C` [Compound E5], the inhibition at 200 µM amounted to 4.1% in assay [1] and 12.8% in assay [2]. The inhibition at 100 µM in assay [3] amounted to 0%.
For `Cc1ccccc1OCC(=O)Oc1ccc2c(C)cc(=O)oc2c1` [Compound E6] the same measures were 0%, 13.2% and 2.5%.

(Values after article PMC5701137, “Discovery of novel choline acetyltransferase inhibitors using structure-based virtual screening” (Scientific Reports, 2017).)
